Source: patent US8586551B2, “18-membered macrocycles and analogs thereof” (Optimer Pharmaceuticals, Inc., priority 2005, dated 2013)
Values after ≈ are worked out from the molar mass of the structure shown.

What was measured:
[1] = system: C. difficile clinical isolates; assay: MIC via agar dilution versus 110 clinical isolates of C. difficile; assay type: cell-based
Bacteroides fragilis = assay: MIC against anaerobes: Bacteroides fragilis; assay type: cell-based; details: Bacteroides fragilis (19)
Description: (§1) The in vitro activity of OPT-80 was determined against 350 anaerobes. The experimental procedure for which is outlined in Antimicrobial Agents and Chemotherapy, 2004, 48: 4430-4434, which is hereby incorporated by reference in its entirety.
(§2) All organisms, including the 21 C. difficile strains, were separate isolates and not clonally related. All quality-control gram-negative and -positive strains recommended by NCCLS were included with each run: in every case, results (where available) were in range.

[2] = system: Peptostreptococcus tetradius; assay: MIC against anaerobes: Peptostreptococcus tetradius; assay type: cell-based; details: Peptostreptococcus tetradius (16)
Clostridium tertium = assay: MIC against anaerobes: Clostridium tertium; assay type: cell-based; details: Clostridium tertium (10)
Clostridium species = assay: MIC against anaerobes: Clostridium species; assay type: cell-based; details: Clostridium species (19)
Description: as §1, §2

[3] = system: Bacteroides fragilis group spp.; assay: MIC against intestinal bacteria: Bacteroides fragilis group; assay type: cell-based
Veillonella spp. = assay: MIC against intestinal bacteria: Veillonella; assay type: cell-based; details: Veillonella spp. (10)
Description: (§3) The in vitro activity of OPT-80 against intestinal bacteria was evaluated. The experimental procedure for which is outlined in Antimicrobial Agents and Chemotherapy, 2004, 48: 4898-4902, which is hereby incorporated by reference in its entirety.
(§4) Antimicrobial concentration ranges were selected to encompass or surpass the levels that would be achieved in the gut (to the extent that this information is available), subject to the limitations of solubility of the drugs in the testing medium. The range of concentration of OPT-80 used during testing was 0.03 μg/ml to 1024 μg/ml.
(§5) For analysis, the bacteria tested were generally placed into genus, species, or other groups with at least 10 isolates. The ranges and the MICs at which 50 and 90% of isolates were inhibited were determined except for organisms with fewer than 10 strains tested, for which only the ranges are reported (Table 8).

[4] = system: All anaerobic gram-negative species; assay: MIC against intestinal bacteria: all anaerobic gram-negative species; assay type: cell-based
Clostridium glycolicum = assay: MIC against intestinal bacteria: Clostridium glycolicum; assay type: cell-based; details: Clostridium glycolicum (9)
Clostridium innocuum = assay: MIC against intestinal bacteria: Clostridium innocuum; assay type: cell-based; details: Clostridium innocuum (9)
Description: as §3, §4, §5

Clostridium ramosum = assay: MIC against intestinal bacteria: Clostridium ramosum; assay type: cell-based
Clostridium sordellii = assay: MIC against intestinal bacteria: Clostridium sordellii; assay type: cell-based; details: Clostridium sordellii (5)
Description: as §3, §4, §5

[5] = system: Staphylococcus aureus and Staphylococcus epidermidis; assay: MIC against intestinal bacteria: Staphylococcus aureus and Staphylococcus epidermidis; assay type: cell-based; details: Staphylococcus aureus and Staphylococcus epidermidis (19)
E. faecium = assay: MIC against other microorganisms: E. faecium

In the case of `CCc1c(Cl)c(O)c(Cl)c(O)c1C(=O)O[C@H]1[C@H](O)[C@H](OC)[C@H](OCC2=CC=CC[C@H](O)C(C)=C[C@H](CC)[C@@H](O[C@@H]3OC(C)(C)[C@@H](OC(=O)C(C)C)[C@H](O)[C@@H]3O)C(C)=CC(C)=CC[C@@H]([C@@H](C)O)OC2=O)O[C@@H]1C` [R-Tiacumicin B, 3-[[[6-Deoxy-4-O-(3,5-dichloro-2-ethyl-4,6-dihydroxybenzoyl)-2-O-methyl-β-D-mannopyranosyl]oxy]-methyl]-12(R)-[[6-deoxy-5-C-methyl-4-O-(2-methyl-1-oxopropyl)-β-D-lyxo-hexopyranosyl]oxy]-11(S)-ethyl-8(S)-hydroxy-18(S)-(1(R)-hydroxyethyl)-9,13,15-trimethyloxacyclooctadeca-3,5,9,13,15-pentaene-2-one], the MIC ([1]; isolate A1 1535) is reported as 0.125 µg/mL (≈ 0.118 µM), the MIC ([1]; isolate AF1 1808) is reported as 0.125 µg/mL (≈ 0.118 µM) and the MIC ([1]; isolate AG1 3044) is reported as 0.125 µg/mL (≈ 0.118 µM). For the same compound, the MIC ([1]; isolate AH1 3430) was 0.125 µg/mL (≈ 0.118 µM), the MIC ([1]; isolate AN1 464) was 0.125 µg/mL (≈ 0.118 µM) and the MIC ([1]; isolate AO1 287) was 0.125 µg/mL (≈ 0.118 µM). The MIC ([1]; isolate AS1 4099) was 0.125 µg/mL (≈ 0.118 µM), the MIC ([1]; isolate AT1 1216) was 0.125 µg/mL (≈ 0.118 µM) and the MIC ([1]; isolate AW1 4501) was 0.125 µg/mL (≈ 0.118 µM). For the same compound, the MIC ([1]; isolate BE1 4307) was 0.125 µg/mL (≈ 0.118 µM), the MIC ([1]; isolate BI1 1675) was 0.125 µg/mL (≈ 0.118 µM) and the MIC ([1]; isolate BK1 4291) was 0.125 µg/mL (≈ 0.118 µM). The MIC ([1]; isolate BL1 716) was 0.125 µg/mL (≈ 0.118 µM), the MIC ([1]; isolate BN1 1322) was 0.125 µg/mL (≈ 0.118 µM) and the MIC ([1]; isolate BW1 3130) was 0.125 µg/mL (≈ 0.118 µM). For the same compound, the MIC ([1]; isolate BX1 4271) was 0.125 µg/mL (≈ 0.118 µM), the MIC ([1]; isolate CF1 5922) was 0.125 µg/mL (≈ 0.118 µM) and the MIC ([1]; isolate CG1 1566) was 0.125 µg/mL (≈ 0.118 µM). It also gave an MIC ([1]; isolate CJ1 893) of 0.125 µg/mL (≈ 0.118 µM), an MIC ([1]; isolate CP1 5491) of 0.125 µg/mL (≈ 0.118 µM) and an MIC ([1]; isolate F1 1015) of 0.125 µg/mL (≈ 0.118 µM). It also gave an MIC ([1]; isolate G1 1077) of 0.125 µg/mL (≈ 0.118 µM), an MIC ([1]; isolate I1 1389) of 0.125 µg/mL (≈ 0.118 µM) and an MIC ([1]; isolate K1 4305) of 0.125 µg/mL (≈ 0.118 µM). The MIC ([1]; isolate K14 5780) was 0.125 µg/mL (≈ 0.118 µM), the MIC ([1]; isolate L1 1423) was 0.125 µg/mL (≈ 0.118 µM) and the MIC ([1]; isolate N1 471) was 0.125 µg/mL (≈ 0.118 µM). It also gave an MIC ([1]; isolate R1 397) of 0.125 µg/mL (≈ 0.118 µM), an MIC ([1]; isolate V1 1521) of 0.125 µg/mL (≈ 0.118 µM) and an MIC ([1]; isolate W1 3931) of 0.125 µg/mL (≈ 0.118 µM). The MIC ([1]; isolate X1 1890) was 0.125 µg/mL (≈ 0.118 µM), the MIC50 (Bacteroides fragilis) was > 128 µg/mL and the MIC90 (Bacteroides fragilis) was > 128 µg/mL. The MIC50 ([2]; Anaerococcus tetradius) was 1 µg/mL (≈ 0.945 µM), the MIC90 ([2]; Anaerococcus tetradius) was 1 µg/mL (≈ 0.945 µM) and the MIC range [2] was 0.25 to 2.0 µg/mL. For the same compound, the MIC50 (Clostridium tertium) was < 0.016 µg/mL, the MIC90 (Clostridium tertium) was 0.03 µg/mL (≈ 0.0284 µM) and the MIC range (Clostridium tertium) was <0.016 to 0.06 µg/mL. For the same compound, the MIC50 (Clostridium species) was < 0.016 µg/mL, the MIC90 (Clostridium species) was 0.03 µg/mL (≈ 0.0284 µM) and the MIC90 ([3]; Bacteroides fragilis) was > 1020 µg/mL. For the same compound, the MIC50 ([3]; Bacteroides fragilis group spp. (50)) was 256 µg/mL (≈ 242 µM), the MIC50 (Veillonella spp.) was 32 µg/mL (≈ 30.2 µM) and the MIC90 (Veillonella spp.) was 128 µg/mL (≈ 121 µM). The MIC range (Veillonella spp.) was 16 to 128 µg/mL, the MIC90 [4] was > 1020 µg/mL and the MIC50 ([4]; All anaerobic gram-negative species (111)) was 256 µg/mL (≈ 242 µM). The MIC range (Clostridium glycolicum) was 0.06 to 1 µg/mL, the MIC range (Clostridium innocuum) was 32 to 128 µg/mL and the MIC range (Clostridium ramosum; Clostridium ramosum (10)) was 256 to 512 µg/mL. The MIC50 (Clostridium ramosum; Thomasclavelia ramosa) was 512 µg/mL (≈ 484 µM), the MIC90 (Clostridium ramosum; Thomasclavelia ramosa, Clostridium ramosum (10)) was 512 µg/mL (≈ 484 µM) and the MIC range (Clostridium sordellii) was 0.06 µg/mL (≈ 0.0567 µM). The MIC50 [5] was 0.5 µg/mL (≈ 0.473 µM), the MIC90 [5] was 2 µg/mL (≈ 1.89 µM) and the MIC range [5] was 0.25 to 2 µg/mL. It also gave an MIC (E. faecium; Enterococcus faecium) of 1 µg/mL (≈ 0.945 µM) and an MIC (E. faecium; Strain ID # 8, E. faecium Vanc. resistant) of 1 µg/mL (≈ 0.945 µM).
